Measured values as given in patent US20230085307A1, “PYRIDAZINONE COMPOUND AND HERBICIDE” (NISSAN CHEMICAL CORPORATION, priority 2019, published 2023).

How the values were obtained:
barnyard grass [1] = test: Test Example 3: herbicidal effect by foliage application, Wagner pot (Table 18, symbol H); assay type: in vivo, barnyard grass (Echinochloa crus-galli); settings: 320 g/ha
How it was run: (§1)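 Plants were sown in alluvial soil held under 0.1–0.5 cm standing water and grown 14 days in a greenhouse at 25–30 °C. An emulsifiable formulation, water-diluted to the set dose, was then sprayed onto the foliage, and effects were scored three weeks later using previously defined criteria.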

false cleavers [2] = test: Test Example 5: herbicidal effect by foliage application, plastic box (Table 20, symbol Q); assay type: in vivo, false cleavers (Galium spurium); settings: foliage application, 320 g/ha, three weeks after application
How it was run: (§2)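 Post-emergence foliar test in sterilized diluvial soil. Compound applied as water-diluted emulsion at a predetermined rate to 14-day-old plants; evaluation at three weeks.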

wild oat [3] = test: Test Example 5: herbicidal effect by foliage application, plastic box (Table 20, symbol I); assay type: in vivo, wild oat (Avena fatua); settings: foliage application, 320 g/ha, three weeks after application
How it was run: as §2

barnyard grass [4] = test: Test Example 4: herbicidal effect by soil treatment (Table 19, symbol H); assay type: in vivo, barnyard grass (Echinochloa crus-galli); settings: amount of applied herbicide 320 g/ha
How it was run: (§3)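 Emulsion of test compound, water-diluted to predetermined amount, sprayed on soil after sowing (seed depth ~1.5 cm, sterilized diluvial soil). Greenhouse, 25–30° C. Effect graded at three weeks post-spray.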

green foxtail [5] = test: Test Example 4: herbicidal effect by soil treatment (Table 19, symbol G); assay type: in vivo, green foxtail (Setaria viridis); settings: amount of applied herbicide 320 g/ha
How it was run: as §3

Chinese sprangletop = test: Test Example 3: herbicidal effect by foliage application, Wagner pot (Table 18, symbol D); assay type: in vivo, chinese sprangletop (Leptochloa chinensis); settings: 320 g/ha
How it was run: as §1

rice flat sedge = test: Test Example 3: herbicidal effect by foliage application, Wagner pot (Table 18, symbol E); assay type: in vivo, rice flat sedge (Cyperus iria); settings: 320 g/ha
How it was run: as §1

windgrass [6] = test: Test Example 5: herbicidal effect by foliage application, plastic box (Table 20, symbol L); assay type: in vivo, windgrass (Apera spica-venti); settings: foliage application, 320 g/ha, three weeks after application
How it was run: as §2

southern crabgrass [7] = test: Test Example 5: herbicidal effect by foliage application, plastic box (Table 20, symbol F); assay type: in vivo, southern crabgrass (Digitaria ciliaris); settings: foliage application, 320 g/ha, three weeks after application
How it was run: as §2

persian speedwell [8] = test: Test Example 5: herbicidal effect by foliage application, plastic box (Table 20, symbol R); assay type: in vivo, Persian speedwell (Veronica persica); settings: foliage application, 320 g/ha, three weeks after application
How it was run: as §2

false cleavers [9] = test: Test Example 4: herbicidal effect by soil treatment (Table 19, symbol Q); assay type: in vivo, false cleavers (Galium spurium); settings: amount of applied herbicide 320 g/ha
How it was run: as §3

Italian ryegrass [10] = test: Test Example 4: herbicidal effect by soil treatment (Table 19, symbol K); assay type: in vivo, Italian ryegrass (Lolium multiflorum); settings: amount of applied herbicide 320 g/ha
How it was run: as §3

oval-leafed pondweed = test: Test Example 1: herbicidal activity, application before weed generation under submerged conditions (Table 16, symbol C); assay type: in vivo, oval-leafed pondweed (Monochoria vaginalis); settings: amount of applied herbicide 320 g/ha
How it was run: (§4)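 Emulsion formulation, water-diluted to set dose, was put onto the flooded surface (4 cm depth, alluvial soil) the same day weeds were sown and 2.5-leaf rice transplanted. After 3 weeks at 25-30 °C under glass, each species was rated 0 (≤5% kill) to 5 (≥90% kill).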

velvetleaf [11] = test: Test Example 5: herbicidal effect by foliage application, plastic box (Table 20, symbol M); assay type: in vivo, velvetleaf (Abutilon theophrasti); settings: foliage application, 320 g/ha, three weeks after application
How it was run: as §2

late watergrass = test: Test Example 1: herbicidal activity, application before weed generation under submerged conditions (Table 16, symbol A); assay type: in vivo, late watergrass (Echinochloa oryzicola); settings: amount of applied herbicide 320 g/ha
How it was run: as §4

chickweed [12] = test: Test Example 5: herbicidal effect by foliage application, plastic box (Table 20, symbol P); assay type: in vivo, common chickweed (Stellaria media); settings: foliage application, 320 g/ha, three weeks after application
How it was run: as §2

green foxtail [13] = test: Test Example 5: herbicidal effect by foliage application, plastic box (Table 20, symbol G); assay type: in vivo, green foxtail (Setaria viridis); settings: foliage application, 320 g/ha, three weeks after application
How it was run: as §2

persian speedwell [14] = test: Test Example 4: herbicidal effect by soil treatment (Table 19, symbol R); assay type: in vivo, Persian speedwell (Veronica persica); settings: amount of applied herbicide 320 g/ha
How it was run: as §3

Italian ryegrass [15] = test: Test Example 5: herbicidal effect by foliage application, plastic box (Table 20, symbol K); assay type: in vivo, Italian ryegrass (Lolium multiflorum); settings: foliage application, 320 g/ha, three weeks after application
How it was run: as §2

lambsquarters [16] = test: Test Example 5: herbicidal effect by foliage application, plastic box (Table 20, symbol O); assay type: in vivo, lambsquarters (Chenopodium album); settings: foliage application, 320 g/ha, three weeks after application
How it was run: as §2

redroot pigweed [17] = test: Test Example 5: herbicidal effect by foliage application, plastic box (Table 20, symbol N); assay type: in vivo, redroot pigweed (Amaranthus retroflexus); settings: foliage application, 320 g/ha, three weeks after application
How it was run: as §2

southern crabgrass [18] = test: Test Example 4: herbicidal effect by soil treatment (Table 19, symbol F); assay type: in vivo, southern crabgrass (Digitaria ciliaris); settings: amount of applied herbicide 320 g/ha
How it was run: as §3

chickweed [19] = test: Test Example 4: herbicidal effect by soil treatment (Table 19, symbol P); assay type: in vivo, common chickweed (Stellaria media); settings: amount of applied herbicide 320 g/ha
How it was run: as §3

velvetleaf [20] = test: Test Example 4: herbicidal effect by soil treatment (Table 19, symbol M); assay type: in vivo, velvetleaf (Abutilon theophrasti); settings: amount of applied herbicide 320 g/ha
How it was run: as §3

redroot pigweed [21] = test: Test Example 4: herbicidal effect by soil treatment (Table 19, symbol N); assay type: in vivo, redroot pigweed (Amaranthus retroflexus); settings: amount of applied herbicide 320 g/ha
How it was run: as §3

barnyard grass [22] = test: Test Example 5: herbicidal effect by foliage application, plastic box (Table 20, symbol H); assay type: in vivo, barnyard grass (Echinochloa crus-galli); settings: foliage application, 320 g/ha, three weeks after application
How it was run: as §2

lambsquarters [23] = test: Test Example 4: herbicidal effect by soil treatment (Table 19, symbol O); assay type: in vivo, lambsquarters (Chenopodium album); settings: amount of applied herbicide 320 g/ha
How it was run: as §3

blackgrass [24] = test: Test Example 4: herbicidal effect by soil treatment (Table 19, symbol J); assay type: in vivo, blackgrass (Alopecurus myosuroides); settings: amount of applied herbicide 320 g/ha
How it was run: as §3

blackgrass [25] = test: Test Example 5: herbicidal effect by foliage application, plastic box (Table 20, symbol J); assay type: in vivo, blackgrass (Alopecurus myosuroides); settings: foliage application, 320 g/ha, three weeks after application
How it was run: as §2

Japanese bulrush = test: Test Example 1: herbicidal activity, application before weed generation under submerged conditions (Table 16, symbol B); assay type: in vivo, Japanese bulrush (Schoenoplectus juncoides); settings: amount of applied herbicide 320 g/ha
How it was run: as §4

windgrass [26] = test: Test Example 4: herbicidal effect by soil treatment (Table 19, symbol L); assay type: in vivo, windgrass (Apera spica-venti); settings: amount of applied herbicide 320 g/ha
How it was run: as §3

wild oat [27] = test: Test Example 4: herbicidal effect by soil treatment (Table 19, symbol I); assay type: in vivo, wild oat (Avena fatua); settings: amount of applied herbicide 320 g/ha
How it was run: as §3

CCn1nc(C)c(O)c(-c2c(-c3ccccc3OC)sc3cc(OC)ccc23)c1=O [3-084]
herbicidal effect on barnyard grass (H) (barnyard grass [1]): 5 (Herbicidal rate of 90% or more (almost completely withered)) | Q: false cleavers, herbicidal effect grade (false cleavers [2]): 5 (Herbicidal rate of 90% or more (almost completely withered)) | I: wild oat, herbicidal effect grade (wild oat [3]): 3 (Herbicidal rate of 40% or more and less than 70%) | H: barnyard grass, herbicidal effect grade (barnyard grass [4]): 0 (Herbicidal rate of 5% or less (almost no effect)) | G: green foxtail, herbicidal effect grade (green foxtail [5]): 0 (Herbicidal rate of 5% or less (almost no effect)) | herbicidal effect on Chinese sprangletop (D) (Chinese sprangletop): 0 (Herbicidal rate of 5% or less (almost no effect)) | herbicidal effect on rice flat sedge (E) (rice flat sedge): 3 (Herbicidal rate of 40% or more and less than 70%) | L: windgrass, herbicidal effect grade (windgrass [6]): 3 (Herbicidal rate of 40% or more and less than 70%) | F: southern crabgrass, herbicidal effect grade (southern crabgrass [7]): 3 (Herbicidal rate of 40% or more and less than 70%) | R: persian speedwell, herbicidal effect grade (persian speedwell [8]): 5 (Herbicidal rate of 90% or more (almost completely withered)) | Q: false cleavers, herbicidal effect grade (false cleavers [9]): 3 (Herbicidal rate of 40% or more and less than 70%) | K: Italian ryegrass, herbicidal effect grade (Italian ryegrass [10]): 1 (Herbicidal rate of 5% or more and less than 20%) | Herbicidal effect, C: oval-leafed pondweed (oval-leafed pondweed): 1 (Herbicidal rate of 5% or more and less than 20%) | M: velvetleaf, herbicidal effect grade (velvetleaf [11]): 4 (Herbicidal rate of 70% or more and less than 90%) | Herbicidal effect, A: late watergrass (late watergrass): 0 (Herbicidal rate of 5% or less (almost no effect)) | P: chickweed, herbicidal effect grade (chickweed [12]): 5 (Herbicidal rate of 90% or more (almost completely withered)) | G: green foxtail, herbicidal effect grade (green foxtail [13]): 3 (Herbicidal rate of 40% or more and less than 70%) | R: persian speedwell, herbicidal effect grade (persian speedwell [14]): 4 (Herbicidal rate of 70% or more and less than 90%) | K: Italian ryegrass, herbicidal effect grade (Italian ryegrass [15]): 1 (Herbicidal rate of 5% or more and less than 20%) | O: lambsquarters, herbicidal effect grade (lambsquarters [16]): 3 (Herbicidal rate of 40% or more and less than 70%) | N: redroot pigweed, herbicidal effect grade (redroot pigweed [17]): 5 (Herbicidal rate of 90% or more (almost completely withered)) | F: southern crabgrass, herbicidal effect grade (southern crabgrass [18]): 0 (Herbicidal rate of 5% or less (almost no effect)) | P: chickweed, herbicidal effect grade (chickweed [19]): 4 (Herbicidal rate of 70% or more and less than 90%) | M: velvetleaf, herbicidal effect grade (velvetleaf [20]): 0 (Herbicidal rate of 5% or less (almost no effect)) | N: redroot pigweed, herbicidal effect grade (redroot pigweed [21]): 4 (Herbicidal rate of 70% or more and less than 90%) | H: barnyard grass, herbicidal effect grade (barnyard grass [22]): 3 (Herbicidal rate of 40% or more and less than 70%) | O: lambsquarters, herbicidal effect grade (lambsquarters [23]): 2 (Herbicidal rate of 20% or more and less than 40%) | J: blackgrass, herbicidal effect grade (blackgrass [24]): 0 (Herbicidal rate of 5% or less (almost no effect)) | J: blackgrass, herbicidal effect grade (blackgrass [25]): 4 (Herbicidal rate of 70% or more and less than 90%) | Herbicidal effect, B: Japanese bulrush (Japanese bulrush): 3 (Herbicidal rate of 40% or more and less than 70%) | L: windgrass, herbicidal effect grade (windgrass [26]): 0 (Herbicidal rate of 5% or less (almost no effect)) | I: wild oat, herbicidal effect grade (wild oat [27]): 2 (Herbicidal rate of 20% or more and less than 40%)
